Experiments:
[1] = biological target: T1, mTREK-1 −43 (Mus musculus, UniProt P97438); experiment: TEVC control: unfused N-terminally truncated mTREK-1 −43; type: cell-based; settings: 10 μM BL1249, TEVC
T1 construct: expressed in transfected cells; host or cells: Xenopus oocytes (mRNA injection); gene synthesized by GeneCust
Method: (§1) Microelectrodes were filled with […]. […] The membrane voltage was clamped to −50 mV.

[2] = biological target: T2, M2_T-00-43 (UniProt P08172+P97438); experiment: Whole-cell patch-clamp on HEK293 cells expressing M2_T-00-43; type: cell-based, human (M2), mouse (TREK-1); design: expressed in transfected cells; host or cells: HEK293 (pIRES2-eGFP vector)
T2 sequence (P08172+P97438 with tags, fused parts or gaps): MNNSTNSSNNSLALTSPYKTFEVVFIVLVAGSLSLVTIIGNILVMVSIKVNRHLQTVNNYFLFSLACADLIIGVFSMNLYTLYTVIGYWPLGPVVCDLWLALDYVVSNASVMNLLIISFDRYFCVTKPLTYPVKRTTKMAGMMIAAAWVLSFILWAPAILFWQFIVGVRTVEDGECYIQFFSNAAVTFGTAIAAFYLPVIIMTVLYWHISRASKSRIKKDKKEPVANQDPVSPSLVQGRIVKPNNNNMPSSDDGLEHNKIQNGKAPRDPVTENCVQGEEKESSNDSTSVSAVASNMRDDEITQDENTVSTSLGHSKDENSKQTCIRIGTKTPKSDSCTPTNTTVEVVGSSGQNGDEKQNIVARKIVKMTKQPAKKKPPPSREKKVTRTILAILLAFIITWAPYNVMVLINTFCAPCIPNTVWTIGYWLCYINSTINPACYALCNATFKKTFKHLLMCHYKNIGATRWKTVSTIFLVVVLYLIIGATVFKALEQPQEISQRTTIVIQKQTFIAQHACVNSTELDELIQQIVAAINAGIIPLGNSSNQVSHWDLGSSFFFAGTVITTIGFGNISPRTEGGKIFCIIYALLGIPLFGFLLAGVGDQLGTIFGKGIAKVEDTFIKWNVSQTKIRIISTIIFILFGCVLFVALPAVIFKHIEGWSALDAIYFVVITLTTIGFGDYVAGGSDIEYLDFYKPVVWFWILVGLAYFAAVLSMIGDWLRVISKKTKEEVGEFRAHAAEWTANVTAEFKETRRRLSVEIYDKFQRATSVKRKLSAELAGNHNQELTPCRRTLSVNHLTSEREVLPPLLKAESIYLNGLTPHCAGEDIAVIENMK
Method: HEK293 cells were grown in 75-mm tissue-culture dishes (Falcon, Franklin Lakes, NJ) in Dulbecco’s modified Eagle’s medium (Gibco, Life Technologies, Saint Aubin, France) supplemented with 10% fetal calf serum (Hyclone, Thermo Fisher Scientific GMBH, Ulm, Germany) and 1% penicillin/streptomycin (Gibco, Life Technologies, Saint Aubin, France) in a humidified incubator at 37 °C (5% CO2). For electrophysiology of ICCRs, […] of plasmid was transfected using Jet-PEI (PolyPlus Transfection, Illkirch FRANCE) according to the manufacturer’s instructions. Cells were plated onto 35-mm dishes 24 h before transfection, and experiments were performed over the following 1–2 days.
Pipettes were pulled from hematocrit-capillaries (Hirschmann Laborgeraete, Germany) using a vertical puller (PC-10, Narishige International, London, United Kingdom), and had resistances of 3–6 MΩ when filled with internal solution and measured in standard bath solution. Whole cell membrane currents were measured and filtered at 3 kHz by a MultiClamp 700A patch clamp amplifier (Molecular Devices), and digitized at 10 kHz using a 12-bit analog-to-digital converter Digidata-1322A (Axon Instrument, Sunnyvale, CA, United States). Recordings were done using Clampex 9 software (Axon Instrument). […]

[3] = test system: M2_Kir6.2-09-25; design: method as in Moreau et al., 2017; settings: Kir6.2 ICCRs; ref Moreau et al., 2017; read-out: IC50 observed with Kir6.2 ICCRs; cited from earlier work
[4] = biological target: T3, M2_Kcv-09-03 (UniProt P08172+Q84568); experiment: TEVC recording of M2_Kcv-09-03 ICCR expressed in Xenopus oocytes; type: cell-based, human (M2), Paramecium bursaria chlorella virus 1 (Kcv)
T3 construct: expressed in transfected cells; host or cells: Xenopus oocytes (mRNA injection)
T3 sequence (P08172+Q84568 with tags, fused parts or gaps): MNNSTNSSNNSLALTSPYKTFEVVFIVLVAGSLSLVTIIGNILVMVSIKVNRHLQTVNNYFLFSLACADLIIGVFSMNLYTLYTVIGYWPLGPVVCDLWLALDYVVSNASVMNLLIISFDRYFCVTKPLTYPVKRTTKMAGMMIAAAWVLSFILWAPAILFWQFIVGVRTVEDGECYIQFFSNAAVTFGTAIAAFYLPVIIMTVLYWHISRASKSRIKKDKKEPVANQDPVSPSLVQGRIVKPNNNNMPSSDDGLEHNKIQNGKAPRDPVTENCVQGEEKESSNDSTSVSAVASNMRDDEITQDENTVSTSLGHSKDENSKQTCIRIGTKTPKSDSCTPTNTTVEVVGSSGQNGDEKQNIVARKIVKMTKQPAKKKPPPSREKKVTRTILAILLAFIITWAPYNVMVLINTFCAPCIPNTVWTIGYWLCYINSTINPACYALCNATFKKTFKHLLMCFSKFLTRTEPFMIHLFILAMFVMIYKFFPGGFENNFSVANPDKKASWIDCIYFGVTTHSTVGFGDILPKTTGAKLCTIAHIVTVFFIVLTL
Method: as §1

[5] = biological target: T2, M2_T-00-43; experiment: TEVC recording of M2_T-00-43 ICCR in Xenopus oocytes; type: cell-based, human (M2), mouse (TREK-1); design: full-length (−00) or M2 deleted of its last nine residues (−09) in the indicated ICCRs; expressed in transfected cells; host or cells: Xenopus oocytes (mRNA injection)
Method: (§2) Xenopus oocytes were prepared as previously reported ([Moreau et al., 2008]). Briefly, after surgical retrieval, the oocytes were defolliculated by type 1A collagenase. Each oocyte was injected with 50 nl of RNAse-free water containing the desired mRNAs. The mRNA quantities used per oocyte were: ICCR with Kcv, 2.7 ng (M2_Kcv and D2_Kcv) and 2.9 ng (OXTR_Kcv); ICCR with mTREK-1, 4.2 ng; ICCR with Kir6.2, 4.3 ng; M2, 2.3 ng; D2, 2.2 ng; Kir3.4T, 2.2 ng; Kcv 0.46 ng and mTREK-1, 2.1 ng. Microinjected oocytes were incubated 2 to 3 days at 19°C in modified-Barth's solution (in mM: 1 KCl, 0.82 MgSO4, 88 NaCl, 2.4 NaHCO3, 0.41 CaCl2, 16 HEPES, pH 7.4) supplemented with 100 U.ml^−1 of penicillin and streptomycin and 0.1 mg.mL^−1 of gentamycin. Animal handling and experiments fully conformed to European regulations and were approved by the French Ministry of Higher Education and Research (APAFIS#4420-2016030813053199 v4 to CM). Authorization of the animal facility has been delivered by the Prefect of Isere (Authorization #D 38 185 10 001).
(§3) Two-electrode voltage-clamp (TEVC) recordings were performed automatically with HiClamp robots (MultiChannel Systems). These TEVC robots rapidly change the applied solutions by transferring the oocytes in different wells of a 96-well plate. […] Microelectrodes were filled with […]. During recordings, oocytes were incubated in low potassium concentration buffer (ND96, in mM: 96 NaCl, 2 KCl, 1.8 CaCl2, 1 MgCl2, 5 HEPES, pH 7.4 supplemented with 0.3 niflumic acid), and in high potassium buffer (in mM: 91 KCl, 1.8 CaCl2, 1 MgCl2, 5 HEPES, 0.3 niflumic acid, pH 7.4). The membrane voltage was clamped to −50 mV. Ligands and BaCl2 were diluted in the high potassium buffer. […] Ligand effects were measured in high potassium concentration buffer with the membrane potential clamped to −50 mV and at 19°C.
(§4) Change of potassium current induced by ligand was calculated either with the barium-sensitive currents as a 0-reference for Kcv-based ICCRs or with the currents in ND96 for mTREK-1 ICCRs. Softwares created by Michel Vivaudou ([Vivaudou, 2019]) were used to extract the raw data.

[6] = biological target: unfused D2L and mTREK-1 (D2+mTREK-1) (Homo sapiens, UniProt P14416); settings: control with co-expression of the unfused proteins, mean ± SEM
Method: as §2, §3, §4

[7] = biological target: D2_T-00-43 (UniProt P14416+P97438); settings: weak inhibition, mean ± SEM
Method: as §2, §3, §4

[8] = test system: Kir3.4T co-expressed with D2_Kcv-00-03; settings: TEVC, Xenopus oocytes
Method: as §2, §3, §4

[9] = biological target: D2_T+09M2-43 (UniProt P14416+P97438); settings: TEVC
Method: as §2, §3, §4

[10] = test system: D2_K+09M2-25; settings: read-out: EC50 on the equivalent Kir6.2 ICCR (D2_K+09M2-25); ref Moreau et al., 2008; cited from earlier work
[11] = test system: OXTR[T4L]_Kcv-42-03; experiment: TEVC recording of OXTR[T4L]_Kcv-42-03 in Xenopus oocytes; type: cell-based, human (OXTR), Paramecium bursaria chlorella virus 1 (Kcv)
Method: as §2, with “Authorization of the animal facility has been delivered by the Prefect of Isere (Authorization #D 38 185 10 001).” left out
Two-electrode voltage-clamp (TEVC) recordings were performed automatically with HiClamp robots (MultiChannel Systems). […] Ligand effects were measured in high potassium concentration buffer with the membrane potential clamped to −50 mV and at 19°C.
Change of potassium current induced by ligand was calculated either with the barium-sensitive currents as a 0-reference for Kcv-based ICCRs or with the currents in ND96 for mTREK-1 ICCRs. […]

[12] = concentration-effect curve, TEVC

Chain of D2_T+09M2-43 (P14416+P97438 fused): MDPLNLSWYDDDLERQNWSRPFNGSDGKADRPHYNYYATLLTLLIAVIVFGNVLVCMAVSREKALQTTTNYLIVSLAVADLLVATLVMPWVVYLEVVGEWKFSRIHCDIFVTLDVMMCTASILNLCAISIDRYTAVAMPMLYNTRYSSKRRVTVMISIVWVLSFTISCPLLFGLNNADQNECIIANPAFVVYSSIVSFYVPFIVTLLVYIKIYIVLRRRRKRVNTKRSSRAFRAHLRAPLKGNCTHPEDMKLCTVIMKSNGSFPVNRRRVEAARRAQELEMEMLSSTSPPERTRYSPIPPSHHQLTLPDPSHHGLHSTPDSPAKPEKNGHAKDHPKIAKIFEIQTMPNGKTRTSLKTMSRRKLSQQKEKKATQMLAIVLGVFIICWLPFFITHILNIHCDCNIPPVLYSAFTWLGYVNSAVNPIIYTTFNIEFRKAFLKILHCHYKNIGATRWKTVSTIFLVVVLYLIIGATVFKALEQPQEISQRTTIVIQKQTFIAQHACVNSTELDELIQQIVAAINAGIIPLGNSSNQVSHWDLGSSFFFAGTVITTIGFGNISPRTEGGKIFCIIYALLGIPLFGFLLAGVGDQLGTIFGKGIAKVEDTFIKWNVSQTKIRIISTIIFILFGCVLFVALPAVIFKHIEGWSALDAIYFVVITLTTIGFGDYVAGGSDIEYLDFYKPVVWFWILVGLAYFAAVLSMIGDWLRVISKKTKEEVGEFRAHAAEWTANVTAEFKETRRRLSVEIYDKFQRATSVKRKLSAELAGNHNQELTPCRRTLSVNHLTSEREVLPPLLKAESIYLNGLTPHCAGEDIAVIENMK
Chain of unfused D2L and mTREK-1 (D2+mTREK-1) (P14416 whole entry, the tested form may be a part): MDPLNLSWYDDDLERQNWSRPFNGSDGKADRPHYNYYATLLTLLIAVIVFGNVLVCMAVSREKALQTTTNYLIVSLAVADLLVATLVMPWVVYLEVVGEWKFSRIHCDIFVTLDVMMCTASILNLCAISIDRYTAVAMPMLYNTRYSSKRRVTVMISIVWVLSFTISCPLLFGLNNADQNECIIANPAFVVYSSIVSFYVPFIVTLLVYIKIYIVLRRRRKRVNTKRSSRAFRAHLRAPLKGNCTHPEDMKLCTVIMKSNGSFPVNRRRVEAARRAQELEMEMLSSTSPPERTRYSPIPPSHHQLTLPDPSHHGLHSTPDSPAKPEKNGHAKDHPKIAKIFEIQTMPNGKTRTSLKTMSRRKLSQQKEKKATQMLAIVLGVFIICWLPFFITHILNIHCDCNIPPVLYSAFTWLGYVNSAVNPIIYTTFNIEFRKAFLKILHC
Chain of D2_T-00-43 (P14416+P97438 fused): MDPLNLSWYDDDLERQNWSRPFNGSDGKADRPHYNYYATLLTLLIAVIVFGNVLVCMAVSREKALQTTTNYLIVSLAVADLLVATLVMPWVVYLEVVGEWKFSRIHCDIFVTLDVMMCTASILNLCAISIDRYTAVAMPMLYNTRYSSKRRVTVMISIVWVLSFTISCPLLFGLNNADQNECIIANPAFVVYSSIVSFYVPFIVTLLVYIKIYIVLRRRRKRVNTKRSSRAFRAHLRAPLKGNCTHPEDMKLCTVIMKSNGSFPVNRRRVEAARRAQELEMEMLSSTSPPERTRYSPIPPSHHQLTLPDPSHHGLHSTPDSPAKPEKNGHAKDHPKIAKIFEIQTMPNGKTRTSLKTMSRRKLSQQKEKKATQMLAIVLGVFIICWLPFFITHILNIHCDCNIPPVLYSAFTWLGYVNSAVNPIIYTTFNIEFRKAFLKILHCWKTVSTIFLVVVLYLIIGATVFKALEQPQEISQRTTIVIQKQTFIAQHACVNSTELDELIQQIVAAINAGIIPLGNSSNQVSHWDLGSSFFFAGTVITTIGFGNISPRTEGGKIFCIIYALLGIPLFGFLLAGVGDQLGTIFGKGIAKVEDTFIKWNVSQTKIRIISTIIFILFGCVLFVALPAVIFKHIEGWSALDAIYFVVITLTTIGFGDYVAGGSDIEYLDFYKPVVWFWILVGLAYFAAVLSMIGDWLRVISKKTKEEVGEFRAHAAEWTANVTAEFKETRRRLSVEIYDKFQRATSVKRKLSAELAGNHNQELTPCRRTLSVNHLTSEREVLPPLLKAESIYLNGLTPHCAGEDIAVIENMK

c1ccc(-c2nn[nH]n2)c(Nc2cccc3c2CCCC3)c1 [BL1249]
activation of unfused truncated mTREK-1 −43 by BL1249, compared with WT channel [1]: lower activation | activation of M2_T-00-43: increase of the current ([2]; 10 μM BL1249, mean ± SEM): 880% ± 190%

C[N+](C)(C)CCOC(N)=O [CCh, carbachol]
IC50 [3]: 1200 nM | Hill coefficient (nH) on M2_Kcv-09-03 [4, 12]: 0.98 | Hill coefficient (nH) on M2_T-00-43 [5, 12]: 0.97

CN1[C@@H]2CC[C@H]1C[C@@H](OC(=O)C(CO)c1ccccc1)C2 (stereo partly drawn) [atropine]
effect of atropine co-application on the ACh response of M2_Kcv-09-03 ([4]; 1 μM atropine co-applied with ACh 5 μM): almost entirely abolished the ACh response | effect of atropine co-application on ACh-induced activation of M2_T-00-43 [5]: inhibited ACh-induced activation

NCCc1ccc(O)c(O)c1 [dopamine]
% of current change induced by 5 μM dopamine on unfused D2 + mTREK-1 [6]: −2.2% ± 1.3% | % of current change induced by 5 μM dopamine on D2_T-00-43 [7]: −4.1% ± 0.6% | G protein activation (Kir3.4T) by D2_Kcv-00-03 upon dopamine application [8]: triggers the activation of the endogenous Gi/o proteins | activation: % of current change induced by 5 μM dopamine on D2_T+09M2-43 ([9]; 5 μM, Xenopus oocytes, mean ± SEM): 12.1% ± 1.7% | Hill coefficient (nH) on D2_T+09M2-43 ([9]; concentration-effect curve): 0.76 | EC50 [10]: 400 nM

oxytocin
response of OXTR[T4L]_Kcv-42-03 to oxytocin [11]: did not induce any response

spadin
inhibition of BL1249 activation of M2_T-00-43 ([2]; 1 μM spadin with 10 μM BL1249, mean ± SEM): 56.8% ± 9.1%
